Measurements reported in article PMC8296985, “A Covalent Calmodulin Inhibitor as a Tool to Study Cellular Mechanisms of K-Ras-Driven Stemness” (Frontiers in Cell and Developmental Biology, 2021).
Where two headings read alike, the source gives them in different places.

What was measured:
Hs 578T = experiment: 3D spheroid (tumorosphere) formation assay, low attachment, serum-free, alamarBlue; type: cell-based; conditions: for IC50: Homo sapiens
Protocol: (§1) 3D spheroid formation assays were performed in 96-well low-attachment, suspension culture plates (cat. no. 655185, Cellstar, Greiner Bio-One) under serum-free condition. About 1,000 (MDA-MB-231, NCI-H358, and MIA PaCa-2) or 2,500 (Hs 578T) cells per well were seeded in 50 μl of either an RPMI medium (cat. no. 52400-025, Gibco, Thermo Fisher Scientific) (MDA-MB-231, A375, and NCI-H358) or DMEM (cat. no. 41965-039, Gibco, Thermo Fisher Scientific) (Hs 578T and MIA PaCa-2), containing 0.5% MethoCult (cat. no. SF H4636, Stemcell technologies), 1x B27 (cat. no. 17504044, Gibco, Thermo Fisher Scientific), 25 ng/ml EGF (cat. no. E9644, Sigma-Aldrich), and 25 ng/ml FGF (cat. no. RP-8628, Thermo Fisher Scientific). Cells were cultured for 3 days and then treated with compounds or vehicle control (DMSO 0.1% v/v in growth medium) for another 3 days. The cells were supplemented with a fresh growth medium on the third day together with the drug treatment. For knockdown experiments, cells were seeded in 12-well plates and treated with either 50 nM scrambled siRNA (cat. no. 1022076, QIAGEN) or indicated concentrations of siRNAs. Next day, cells were collected by trypsinization and re-plated into 96-well plates for 3D spheroid suspension culture.
(§2) Spheroid formation efficiency was analyzed by an alamarBlue assay reagent (cat. no. DAL1100, Thermo Fisher Scientific). A 10% final volume of the alamarBlue reagent was added to each well of the plate and incubated for 4 h at 37°C. Then the fluorescence intensity was measured using the FLUOstar OPTIMA plate reader (BMG Labtech, Germany) with an excitation wavelength of 560 ± 5 nm and an emission wavelength of 590 ± 5 nm.
(§3) To quantitatively profile the drug sensitivity with a more robust parameter than the IC50 or EC50 values, the drug sensitivity score (DSS) analysis was employed. DSS values are essentially normalized area under the curve (AUC) measures of dose-response inhibition data ([Yadav et al., 2014]). Drug response data files (in Excel) ready for online analysis were prepared according to the example file obtained from the DSS pipeline website, called Breeze^1 ([Potdar et al., 2020]). Either raw fluorescence intensity measurements or normalized % inhibition data (for BRET assay analysis) were uploaded.
(§4) DSS3 was employed to emphasize drugs that obtain their response area over a relatively wide dose window, as compared to drugs that show increased response only at the higher end of the concentration range. After logistic fitting of the dose-response inhibition data, the area under the curve (AUC) was determined as the exact solution. A 10% minimal activity threshold (t) was set. The maximum (Cmax) and minimum (Cmin) concentrations were used for screening of the inhibitors, with Cmax = x2 and x1 concentration with minimal activity t.

MDA-MB-231 = experiment: as above; type: cell-based; conditions: for IC50: Homo sapiens; for KRAS/HRAS mutant cell line DSS3 ratio: MDA-MB-231 vs Hs 578T 3D spheroid formation, 0.6–40 μM, numbers above bars Fig. 1A,B
Protocol: as §1, §2, §3, §4

calmodulin (CaM) = calmodulin (CaM) (Bos taurus, UniProt P62157); experiment: Fluorescence polarization assay, displacement of F-PMCA peptide from CaM; conditions: for kinact/KI: read-out: k2/Ki second-order rate constant
Protocol: Compounds were threefold-diluted in an assay buffer (20 mM Tris Cl pH 7.5, 50 mM NaCl, 1 mM CaCl2, and 0.005% Tween 20), and a complex of 100 nM CaM and 10 nM F-PMCA peptide was added. […] Then the plate was incubated overnight at 4°C, and the next day, final readings were taken after a total of 24 h incubation. The fluorescence anisotropy was calculated and plotted against the logarithm of the compound concentration and fit to the log inhibitor vs. response–variable slope (four parameters) equation in Prism (GraphPad).
The potency and selectivity of a covalent inhibitor are governed by two parameters, namely, Ki, the dissociation constant of the initial non-covalent complex, and k2, the rate of the subsequent covalent bond-forming reaction as given in the chemical equation
E and I denote a protein target and its covalent inhibitor, respectively. E ⋅ I is the initial non-covalent complex, and E – I is the final covalent complex. […] This was repeated for several inhibitor concentrations. Then, kobs was plotted against the concentration of the inhibitor, and the data were fit to a hyperbolic equation kobs=k2×[I]/Ki+[I] to obtain Ki and k2. The ratio of k2/Ki represents the second-order rate constant of the reaction of the covalent inhibitor with the target.

[1] = test system: NCI-H358, MIA PaCa-2, MDA-MB-231 and A375 3D spheroids; experiment: 3D spheroid growth benchmarking, DSS3, alamarBlue; type: cell-based; conditions: spheroids grown 72 h then treated 72 h
Protocol: as §1, §2, §3, §4

K-RasG12V = K-RasG12V nanoclustering-BRET assay in HEK293-EBNA cells; type: cell-based; conditions: mevastatin 10 μM
Protocol: BRET assays were essentially performed as described by others ([Lavoie et al., 2013]; [Bery et al., 2018]). About 100,00–150,000 HEK293-EBNA ([Meissner et al., 2001]) cells were seeded per well of a 12-well plate in 1 ml of DMEM containing 10% FBS and 2 mM L-glutamine and were grown for 24 h. Next day, Rluc8-tagged donor and GFP2-tagged acceptor constructs were transfected into cells using a jetPRIME transfection reagent (cat. no. 114-75, Polyplus). Each well was transfected with about 1 μg of plasmid DNA using 3 μl of the jetPRIME reagent. For BRET donor saturation titration experiments, the concentration of donor plasmid (25 ng) was kept constant, and the concentration of acceptor plasmid was increased from 0 to 500 ng for RasG12V BRET pairs and 0–1,000 ng for K-Ras/CaM BRET pairs. The empty pcDNA3.1(-) plasmid was used to top-up the total DNA load per transfection. After 24 h of transfection, cells were treated with compounds or vehicle control (DMSO 0.2% v/v in a growth medium) at the specified concentration for 24 h or the stipulated time period in case of the time-course experiments. The cells from one well of a 12-well plate were collected, washed, and re-plated in PBS (cat. no. 14190-094, Gibco, Thermo Fisher Scientific) on flat bottom, white 96-well plates (cat. no. 236108, Nunc, Thermo Fisher Scientific) as four technical replicates containing 90 μl of cell suspension per well. Then fluorescence intensity followed by BRET readings were carried out on a Clariostar (BMG Labtech) plate reader at 25°C. The fluorescence intensity (RFU) of GFP2 was measured with excitation at 405 ± 10 nm and emission 515 ± 10 nm; it is proportional to the acceptor concentration [acceptor]. BRET readings were taken well by well by adding 10 μl of 100 μM coelenterazine 400a (cat. no. C-320, GoldBio), the Rluc8 substrate to each well (final concentration of 10 μM) using the injector present in the plate reader. Luminescence emission intensities were simultaneously recorded at 410 ± 40 nm (RLU, proportional to [donor]) and 515 ± 15 nm (BRET signal).
The raw BRET ratio was calculated as the BRET signal measured at 515 nm divided by the emission signal measured at 410 nm (RLU). The BRET ratio was obtained by subtracting the raw BRET ratio by a background BRET signal measured for cells expressing only the donor ([Bacart et al., 2008]) as indicated in the formula below:
For BRET donor saturation titration experiments, the BRET ratio was plotted against the [acceptor]/[donor] ratio. Technical repeat data points were averaged, and data points from all biological repeats were collected into one graph for subsequent fitting. The BRET ratio vs. relative expression data were fitted using a binding saturation equation in the Prism (GraphPad) software to obtain BRETmax and BRET50 using the equation y=BRETmax×x/BRET50+x , where x is the relative expression and y is the BRET ratio. BRETmax represents the maximum saturation BRET signal and depends on the structural parameters (distance, orientation) of the BRET complex. BRET50 corresponds to the ratio of the acceptor construct over the donor construct required to attain 50% of the maximum BRET signal and is a measure of the effective relative affinity between the interacting BRET pair ([Marullo and Bouvier, 2007]).
When applying the DSS analysis to nanoclustering-BRET data, we used mevastatin (10 μM) to obtain the asymptote parameter (a) for the maximal inhibition effect, as it prevents the prenylation of Ras proteins, their plasma membrane trafficking, and therefore nanoclustering. Otherwise, normalized BRET ratio data were converted to % inhibition and then subsequently uploaded onto the Breeze site (see text footnote 1).

[2] = 72 h, Hs 578T (H-RasG12D) 3D tumorosphere, 3 days treatment, read-out: IC50
[3] = Hs 578T 3D tumorosphere, log scale
[4] = 72 h, MDA-MB-231 (K-RasG13D) 3D tumorosphere, 3 days treatment, read-out: IC50
[5] = MDA-MB-231 3D tumorosphere, log scale
[6] = Hs 578T 3D tumorosphere, log scale, read-out: logIC50 ± SD (converted)
[7] = MDA-MB-231 3D tumorosphere, log scale, read-out: logIC50 ± SD (converted)

Row | SMILES | IC50 (Hs 578T; [2]) [µM] | logIC50 ± SD (Hs 578T; [3]) | IC50 (MDA-MB-231; [4]) [µM] | logIC50 ± SD (MDA-MB-231; [5]) | KRAS/HRAS mutant cell line DSS3 ratio (MDA-MB-231) | Kd (calmodulin (CaM)) [µM] | effect on 3D spheroid growth [1] | IC50 (Hs 578T; [6]) [µM] | IC50 (MDA-MB-231; [7]) [µM] | Ki (calmodulin (CaM)) [µM] | kinact/KI (calmodulin (CaM)) [M⁻¹ s⁻¹] | affinity for CaM relative to OphA (calmodulin (CaM); after 24-h incubation, higher affinity than OphA) [fold] | Kd ± SD (calmodulin (CaM); CaM-binding affinity after 24-h incubation, F-PMCA probe) | time-dependent change of K-RasG12V nanoclustering-BRET signal (K-RasG12V; 2-h treatment timeframe, OphA 10 μM) | K-Ras selective reduction of nanoclustering-BRET (K-Ras vs H-Ras) (K-RasG12V; 24 h, calmidazolium 20 μM, OphA 2.5 μM, prostratin 10 μM, benzazulenones 20 μM)
1 | CC(C)c1ccc2cc(C(F)(F)F)c(=O)c3c(N)c(C=O)c(c1)c23 [Compound 7] | > 40 | Inconclusive | > 40 | Inconclusive | 2.2 | 45 | – | – | – | – | – | – | – | – | –
2 | CCCS(=O)(=O)Nc1ccc(F)c(C(=O)c2c[nH]c3ncc(-c4ccc(Cl)cc4)cc23)c1F [vemurafenib] | – | – | – | – | – | – | selectively and potently abolished the growth | – | – | – | – | – | – | – | –
3 | Cc1c(NCCO)c2c(=O)c(C(F)(F)F)cc3ccc(C(C)C)cc1c32 [Compound 13] | > 40 | Inconclusive | > 40 | Inconclusive | 14.5 | 62 | – | – | – | – | – | – | – | – | –
4 | CC(C)c1ccc2cc(C(F)(F)F)c(=O)c3c(NCCO)c(C=O)c(c1)c23 [Compound 6] | > 40 | Inconclusive | > 40 | Inconclusive | 115.5 | 31 | – | – | – | – | – | – | – | – | –
5 | Cc1c(N2CCCC2)c2c(=O)c(C(F)(F)F)cc3ccc(C(C)C)cc1c32 [Compound 11, 2-pyrrolidinylbenzazulen-3-one] | 5.2 | – | 15.4 | – | 1.2 | 0.81 | – | 5.89 | 15.5 | 78 | 1.11 | – | – | – | –
6 | CC(C)c1ccc2cc(C(F)(F)F)c(=O)c3c(N4CCOCC4)c(C=O)c(c1)c23 [Compound 2] | 24.9 | – | 22.8 | – | 3.3 | 0.23 | – | 24.5 | 22.9 | 13 | 25.8 | 15 | – | – | –
7 | Cc1c(N2CCN(C)CC2)c2c(=O)c(C(F)(F)F)cc3ccc(C(C)C)cc1c32 [Compound 10] | 23.1 | – | > 40 | Inconclusive | 0.03 | – | – | 22.9 | – | – | – | – | Inconclusive | – | –
8 | CC(C)c1ccc2cc(C(F)(F)F)c(=O)c3c(N4CCCC4)c(C=O)c(c1)c23 [Compound 4] | > 40 | Inconclusive | > 40 | Inconclusive | 2.0 | 39 | – | – | – | – | – | – | – | – | –
9 | CC[C@H](C)C(=O)O[C@H]1CCC=C2C=C[C@H](C)[C@H](CC[C@@H]3C[C@@H](O)CC(=O)O3)[C@H]21 [mevastatin] | – | – | – | – | – | – | – | – | – | – | – | – | – | did not cause any reduction in the BRET signal | fairly indiscriminately
10 | CC(C)c1ccc2cc(C(F)(F)F)c(=O)c3c(N4CCC4)c(C=O)c(c1)c23 [Compound 5] | 13.2 | – | 34.5 | – | 0.7 | 29 | – | 13.2 | 34.7 | – | – | – | – | – | –
11 | Cc1c(N2CCC2)c2c(=O)c(C(F)(F)F)cc3ccc(C(C)C)cc1c32 [Compound 12] | 8.5 | – | > 40 | Inconclusive | 0.01 | 6.1 | – | 7.94 | – | – | – | – | – | – | –
12 | Cc1c(N)c2c(=O)c(C(F)(F)F)cc3ccc(C(C)C)cc1c32 [Compound 14] | > 40 | Inconclusive | > 40 | Inconclusive | 4.7 | 21.4 | – | – | – | – | – | – | – | – | –
13 | Cc1c(N2CCOCC2)c2c(=O)c(C(F)(F)F)cc3ccc(C(C)C)cc1c32 [Compound 9] | 17.4 | – | 19.6 | – | 1.3 | 1.44 | – | 17.4 | 19.5 | 229 | 1.67 | – | – | – | –
